Earlier results as cited in patent US20160250154A1, “FILM DELIVERY SYSTEM FOR ACTIVE INGREDIENTS” (MonoSol Rx, LLC, priority 2013, published 2016).

Details: MSDS from PI Chemical

## CCCCCCCCCCC(=O)O[C@H]1CC[C@H]2[C@@H]3CCC4=CC(=O)CC[C@]4(C)[C@H]3CC[C@]12C [Testosterone Undecanoate]
  classification of solubility in water: insoluble in water
